Data published in US8288404B2, “Pyrrolidine GPR40 modulators” (Bristol-Myers Squibb Company, priority 2009, dated 2012).
pEC50: −log10 of the molar value. Structures can show the parent of a compound that is named as a salt.

Target: T1, hGPR40 (Homo sapiens, UniProt O14842)
T1 construct: 3xFLAG; expressed in transfected cells
Experiment: FDSS-Based Intracellular Calcium Assay (Human GRP40 In Vitro assay)
Conditions: cell lines expressing GPR40, intracellular Ca2+ response, FDSS reader
Procedure: FDSS-Based Intracellular Calcium Assay
Cell lines expressing GPR40 are generated using the pDEST 3xflag gene expression system and are cultured in culture medium comprising the following components: F12 (Gibco #11765), 10% lipid deprived fetal bovine serum, 250 ug/ml zeocin and 500 ug/ml G418. To conduct the fluorescent imaging plate reader (FLIPR)-based calcium flux assay to measure intracellular Ca^2+ response, cells expressing GPR40 are plated on 384 well plates (BD Biocoat #356697) at a density of 20,000 cells/20 ul medium per well in phenol red and serum-free DMEM (Gibco #21063-029) and incubated overnight. Using BD kit #s 80500-310 or -301, the cells are incubated with 20 ul per well of Hank's buffered salt solution with 1.7 mM probenecid and Fluo-3 at 37° C. for 30 minutes. Compounds are dissolved in DMSO and diluted to desired concentrations with assay buffer and added to the cells as 3× solution (20 ul per well). Run fluorescence/luminescence reader FDSS (Hamamatsu) to read intracellular Ca^2+ response.
Table 1 below lists hGPR40 EC50 values measured for the following examples.

T1 sequence (O14842 whole entry): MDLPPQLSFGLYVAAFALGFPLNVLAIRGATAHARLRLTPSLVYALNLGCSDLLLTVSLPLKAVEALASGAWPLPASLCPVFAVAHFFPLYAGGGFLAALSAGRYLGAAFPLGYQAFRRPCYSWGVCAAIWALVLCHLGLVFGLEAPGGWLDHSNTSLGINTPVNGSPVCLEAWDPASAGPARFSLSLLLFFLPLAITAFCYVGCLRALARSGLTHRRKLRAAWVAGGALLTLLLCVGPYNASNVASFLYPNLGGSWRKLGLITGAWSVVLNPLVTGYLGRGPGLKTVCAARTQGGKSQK

Row | Structure (SMILES) | pEC50
1 | COc1ccc(F)c(-c2cccc(Oc3ccc(N4CCC[C@H]4CC(=O)O)cc3)c2C)c1 [Example 68, 2-((2S)-1-(4-(2′-fluoro-5′-methoxy-2-methylbiphenyl-3-yloxy)phenyl)pyrrolidin-2-yl)acetic acid, TFA] | 6.50
2 | Cc1ccccc1Cc1ccc(N2C[C@@H](C(F)(F)F)C[C@H]2CC(=O)O)cc1 [Example 40, 2-((2S,4S)-1-(4-(2-methylbenzyl)phenyl)-4-(trifluoromethyl)pyrrolidin-2-yl)acetic acid, TFA] | 7.21
3 | Cc1ccc(COc2ccc(N3CCC[C@@H]3CC(=O)O)cc2)cc1 [Example 109] | 5.36
4 | COc1ccc(Oc2ccc(N3C[C@@H](C(F)(F)F)C[C@H]3CC(=O)O)cc2)c(C)c1 [Example 50, 2-((2S,4S)-1-(4-(4-methoxy-2-methylphenoxy)phenyl)-4-(trifluoromethyl)pyrrolidin-2-yl)acetic acid, TFA] | 7.26
5 | Cc1cccc(C)c1Oc1ccc(N2CCC[C@@H]2CC(=O)O)cc1 [Example 4, (R)-2-(1-(4-(2,6-dimethylphenoxy)phenyl)pyrrolidin-2-yl)acetic acid, HCl] | 5.42
6 | O=C(O)C[C@@H]1CCCN1c1ccc(Cc2ccc(OCc3ccccc3)cc2)cc1 [Example 58, (S)-2-(1-(4-(4-(benzyloxy)benzyl)phenyl)pyrrolidin-2-yl)acetic acid, TFA] | 6.48
7 | Cc1ccccc1Sc1ccc(N2CCC[C@H]2CC(=O)O)cc1 [Example 44, (S)-2-(1-(4-(o-tolylthio)phenyl)pyrrolidin-2-yl)acetic acid, TFA] | 6.45
8 | Cc1ccccc1Oc1ccc(N2C[C@@H](C(F)(F)F)C[C@H]2CC(=O)O)cc1 [Example 41, 2-((2S,4S)-1-(4-(o-tolyloxy)phenyl)-4-(trifluoromethyl)pyrrolidin-2-yl)acetic acid, TFA] | 7.25
9 | CO[C@H]1C[C@@H](CC(=O)O)N(c2ccc(Oc3ccccc3C)cc2)C1 [Example 56, 2-((2S,4S)-4-methoxy-1-(4-(o-tolyloxy)phenyl)pyrrolidin-2-yl)acetic acid, TFA] | 5.63
10 | Cc1ccccc1COc1cc(N2CCC[C@H]2CC(=O)O)ccn1 [Example 76, (S)-2-(1-(2-(2-methylbenzyloxy)pyridin-4-yl)pyrrolidin-2-yl)acetic acid, TFA] | 5.36
11 | Cc1ccccc1Oc1ccc(N2CCC[C@H]2CC(=O)O)cc1 [Example 5, (S)-2-(1-(4-(o-tolyloxy)phenyl)pyrrolidin-2-yl)acetic acid, HCl] | 7.19
12 | Cc1ccccc1Oc1ccc(N2CCC[C@H]2CC(=O)O)cc1F [Example 1, (S)-2-(1-(3-fluoro-4-(o-tolyloxy)phenyl)pyrrolidin-2-yl)acetic acid, TFA] | 5.79
13 | O=C(O)C[C@@H]1C[C@H](C(F)(F)F)CN1c1ccc(Oc2ccccc2C(F)(F)F)cc1 [Example 52, 2-((2S,4S)-4-(trifluoromethyl)-1-(4-(2-(trifluoromethyl)phenoxy)phenyl)pyrrolidin-2-yl)acetic acid, TFA] | 6.52
